Values belong to the compound of their own block, whether it stands above or below them.
Columns and labels:
SAD mouse red cells = conditions: oral administration; cited from earlier work
[1] = test system: MM-RU human melanoma cells; conditions: SCID mice inoculated with MM-RU human melanoma cells, daily administration; cited from earlier work
[2] = test system: patients with sickle cell disease; conditions: oral therapy; cited from earlier work
[3] = target: Gardos channel of erythrocytes (Homo sapiens, UniProt O15554); test: Gardos Channel Assay; conditions: for inhibition at 10 µM: read-out: Gardos Channel Assay Inhibition
Chain of Gardos channel of erythrocytes (O15554 whole entry): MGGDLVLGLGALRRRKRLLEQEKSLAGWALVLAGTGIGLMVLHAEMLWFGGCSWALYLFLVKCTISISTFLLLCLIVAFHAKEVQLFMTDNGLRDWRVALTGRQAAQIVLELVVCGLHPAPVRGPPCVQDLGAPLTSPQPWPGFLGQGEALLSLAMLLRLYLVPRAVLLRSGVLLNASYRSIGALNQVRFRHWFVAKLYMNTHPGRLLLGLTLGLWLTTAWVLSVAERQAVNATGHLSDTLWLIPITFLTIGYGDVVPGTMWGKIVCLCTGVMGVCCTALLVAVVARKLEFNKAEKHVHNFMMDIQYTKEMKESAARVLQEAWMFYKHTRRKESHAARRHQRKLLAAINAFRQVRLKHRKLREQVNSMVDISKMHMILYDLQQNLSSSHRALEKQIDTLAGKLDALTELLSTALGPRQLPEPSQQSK

[4] = test system: NIH 3T3 mouse fibroblast cells; test: Mitogenic Assay (mitogen-induced cell proliferation); conditions: for inhibition at 10 µM: NIH3T3, read-out: Mitogenic Assay Inhibition; for IC50: NIH3T3, read-out: Mitogenic Assay IC50
MMRU cells = test: SRB antiproliferative assay, MMRU; conditions: Homo sapiens, 120 h, read-out: SRB IC50 MMRU
HCT-15 = test: SRB antiproliferative assay, HCT-15; format: cell-based; conditions: Homo sapiens, HCT-15, 120 h; Colon; 5% FCS, 5 Day Incubation
Text: (§1) The cells were passaged using Trypsin (Gibco).

CaSki = test: SRB antiproliferative assay, CaSki; format: cell-based; conditions: Homo sapiens, Ca-Ski, 120 h; Cervical; 5% FCS, 5 Day Incubation
Text: as §1

HUVEC = test: SRB assay, normal HUVEC cells; format: cell-based; conditions: 120 h, Normal human, 5% FCS, 5 Day Incubation
Text: as §1

SK-OV-3 = test: SRB antiproliferative assay, SK-OV-3; format: cell-based; conditions: Homo sapiens, SK-OV-3, 120 h; Ovary; 5% FCS, 5 Day Incubation
Text: as §1

HEPG2 = test: SRB antiproliferative assay, HEPG2; format: cell-based; conditions: Homo sapiens, HepG2, 120 h; Hepatocel; 5% FCS, 5 Day Incubation
Text: as §1

HTB174 = test: SRB antiproliferative assay, HTB174; format: cell-based; conditions: 120 h; Lung; 5% FCS, 5 Day Incubation
Text: as §1

SK-MEL-28 = test: SRB antiproliferative assay, SK-MEL-28; format: cell-based; conditions: Homo sapiens, SK-MEL-28, 120 h; Melanoma; 5% FCS, 5 Day Incubation
Text: as §1

HT29 = test: SRB antiproliferative assay, HT29; conditions: Homo sapiens, HT-29, 120 h, read-out: SRB IC50 HT29
L929 = test: SRB assay, normal L929 cells; format: cell-based; conditions: L929, 120 h; Normal mouse; 5% FCS, 5 Day Incubation
Text: as §1

3T3 = test: SRB assay, normal 3T3 cells; format: cell-based; conditions: NIH3T3, 120 h; Normal mouse; 5% FCS, 5 Day Incubation
Text: as §1

MCF7 = test: SRB antiproliferative assay, MCF7; conditions: Homo sapiens, MCF7, 120 h, read-out: SRB IC50 MCF7
A549 = test: SRB antiproliferative assay, A549; conditions: Homo sapiens, A549, 120 h, read-out: SRB IC50 A549
GM = test: SRB assay, normal GM cells; format: cell-based; conditions: 120 h; Normal human; 5% FCS, 5 Day Incubation
Text: as §1

MDA-MB-231 = test: SRB antiproliferative assay, MDA-MB-231; format: cell-based; conditions: Homo sapiens, 120 h; Breast; 5% FCS, 5 Day Incubation; read-out: SRB IC50 MDA-MB-23
Text: as §1

DU-145 = test: SRB antiproliferative assay, DU-145; format: cell-based; conditions: Homo sapiens, DU-145, 120 h; Prostate; 5% FCS, 5 Day Incubation
Text: as §1

ACHN = test: SRB antiproliferative assay, ACHN; format: cell-based; conditions: Homo sapiens, 120 h, Renal, 5% FCS, 5 Day Incubation
Text: as §1

HeLa = test: SRB antiproliferative assay, HeLa; format: cell-based; conditions: Homo sapiens, 120 h, Cervical, 5% FCS, 5 Day Incubation
Text: as §1

Compound: Clc1ccccc1C(c1ccccc1)(c1ccccc1)n1ccnc1 [Clotrimazole]
cell density (SAD mouse red cells): decreased
mean cell hemoglobin concentration (MCHC) (SAD mouse red cells): decreased
red cell Gardos channel (SAD mouse red cells): inhibition
red cell K+ content (SAD mouse red cells): increased
number of lung metastases observed [1]: significant reduction
Gardos channel [2]: induces inhibition
erythrocyte dehydration [2]: reduces

Compound: C=CCOC1=C(CC=C)C(c2ccccc2)(c2ccccc2)c2ccccc21 [Compound 6]
inhibition at 10 µM [3]: 35%
IC50 [4]: 3.4 µM
inhibition at 10 µM [4]: 90%

Compound: O/N=C1\CC(c2ccc(Cl)cc2)(c2ccc(Cl)cc2)c2ccc(Cl)cc21 [Compound 11]
IC50 (MMRU cells): 6.2 µM
melting point: 85 °C
IC50 (HCT-15): 6.6 µM
IC50 (CaSki): 7 µM
IC50 (HUVEC): 6.4 µM
IC50 (SK-OV-3): > 10 µM
inhibition at 10 µM [3]: 50%
IC50 (HEPG2): 5.8 µM
IC50 (HTB174): 5.9 µM
IC50 (SK-MEL-28): 5.5 µM
IC50 (HT29): 6.8 µM
IC50 (L929): 8.6 µM
IC50 (3T3): > 10 µM
IC50 (MCF7): 4.4 µM
IC50 (A549): 8.8 µM
IC50 (GM): > 10 µM
IC50 (MDA-MB-231): > 10 µM
IC50 (DU-145): > 10 µM
IC50 [4]: 3.4 µM
inhibition at 10 µM [4]: 99%
IC50 (ACHN): > 10 µM
IC50 (HeLa): 5.1 µM

Compound: COC(=O)C1C(=O)c2ccccc2C1(c1ccccc1)c1ccccc1 (stereo not drawn) [Compound 15, 3,3-Diphenylindanone-2-methyl acetate]
melting point: 140 to 142 °C
IC50 [3]: 2.9 µM
inhibition at 10 µM [3]: 54.8%
IC50 [4]: 7.5 µM
inhibition at 10 µM [4]: 80%

The next lines start with results.

inhibition at 10 µM [3]: 67.3%
Compound: N#CC1OC12CC(c1ccccc1)(c1ccccc1)c1ccccc12 (stereo not drawn) [Compound 5, spiro[3,3-diphenyl-2,3-dihydro(1H)indene-1,3′-2′-cyanooxirane]]
inhibition at 10 µM [4]: 29%

melting point: 50 to 52 °C
inhibition at 10 µM [3]: 0%
Compound: COC(=O)c1ccc(COC2CC(c3ccccc3)(c3ccccc3)c3ccccc32)cc1 (stereo not drawn) [Compound 17, 3,3-Diphenyl-1-indanyl α-(4-methyltoluate) ether]
inhibition at 10 µM [4]: 76%

melting point: 27 to 29 °C
inhibition at 10 µM [3]: 0%
Compound: Clc1ccccc1COC1CC(c2ccccc2)(c2ccccc2)c2ccccc21 (stereo not drawn) [Compound 18, 3,3-Diphenyl-1-indanyl α-(2-chlorotoluyl) ether]
inhibition at 10 µM [4]: 73%

melting point: 124 to 126 °C
inhibition at 10 µM [3]: 0%
Compound: OC1=C(CCC2OCCO2)C(c2ccccc2)(c2ccccc2)c2ccccc21 [Compound 20, 2-(Ethyl-2′-(1,3-dioxolane))-1-hydroxy-3,3-diphenylindene]
inhibition at 10 µM [4]: 81%
